The record followed here is ChEMBL document CHEMBL1201862, “PubChem BioAssay data set” (2004).

Experiment in all cases: NCI anticancer screen, dose series, 48 h
Test [1] has as its system CAKI-1.
For test [2], the system named is DU-145.
The test system of test [3] is EKVX.
The subject of test [4] is HCT-116.
Test [5] has as its system HCT-15.
Test [6] relates to HL-60.
Test [7] relates to HOP-62.
Test [8] deals with HT-29.
In test [9] the test system is Hs-578T.
Test [10] concerns K562.
The test system of test [11] is LOX IMVI.
The subject of test [12] is MDA-N.
The subject of test [13] is Malme-3M.
Test [14] has as its system NCI-H460.
The test system of test [15] is RPMI-8226.
Test [16] has as its system SF-268.
The test system of test [17] is SF-295.
Test [18] has as its system SK-MEL-5.
The subject of test [19] is SN12C.
Test [20] deals with UACC-62.

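Briefly, cells in 96-well plates were exposed to five compound concentrations for 48 h, and endpoints were estimated by linear interpolation. At the GI50, growth is halved.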 Active and inactive are the calls of the source. Rule as the data show it: active = GI50 up to about 1.1 µM and inactive = higher.

As to `CCC(/C=C/c1ccccc1)=N\NC(=S)N/N=C(/C=C/c1ccccc1)CC`, the GI50 is > 100 µM (inactive) in test [1]; 26.1 µM (inactive) in test [2]; > 100 µM (inactive) in test [3]; 19 µM (inactive) in test [4]; 26.5 µM in [5]; 19.6 µM (inactive) in test [6]. Besides, the GI50 in test [7] was > 100 µM (inactive); in test [8], 55.1 µM (inactive); in test [9] it was > 100 µM (inactive); in test [10], 19.6 µM (inactive); in test [11], 21.3 µM (inactive); in [12], 58.1 µM (inactive). Moreover, the GI50 in [13] is 90.8 µM (inactive); in test [14], 13.2 µM (inactive); in test [15] it was 35.5 µM (inactive); in [16], 12.8 µM (inactive); in test [17], 87.7 µM (inactive); in test [18] it was 23 µM (inactive). Moreover, the GI50 in test [19] is 36.6 µM (inactive); in [20] it was 54.8 µM (inactive).
In the case of `CNC(=O)Nn1c(SC)nc2ccccc21`, the GI50 is > 100 µM (inactive) in test [1]; > 100 µM (inactive) in test [2]; > 100 µM (inactive) in [3]; > 100 µM (inactive) in [4]; more than 100 µM in [5]; > 100 µM (inactive) in test [6]. For the same compound, the GI50 in test [7], in test [8], in test [9], in test [10], in test [11] and in test [12] was > 100 µM (inactive) throughout. Moreover, the GI50 in test [13], in test [14], in test [15], in test [16], in test [17] and in [18] was > 100 µM (inactive) throughout. In addition, the GI50 in test [19] and in test [20] was > 100 µM (inactive) each time.
As for `N=C(c1ccc(-c2cn3cc(C(=N)N4CCCC4)ccc3n2)cc1)N1CCCC1`, the GI50 in [1] was > 100 µM (inactive); in test [2] it was > 100 µM (inactive); in test [3], > 100 µM (inactive); in test [4], > 100 µM (inactive); in [5], more than 100 µM; in test [6], 0.0303 µM (active). The GI50 in test [7], in test [8], in [9], in test [10], in test [11] and in test [12] was > 100 µM (inactive) each time. In addition, the GI50 in test [13], in test [15], in [16], in test [17], in [18] and in test [19] was > 100 µM (inactive) in each case. In addition, the GI50 in test [20] is > 100 µM (inactive).
Consider `COc1c(C)c(C/C=C(\C)CCCCO[Si](c2ccccc2)(c2ccccc2)C(C)(C)C)c(OC)c(OC)c1OC`, for which the GI50 was 1.84 µM (inactive) in test [1]; 27.9 µM (inactive) in [2]; > 31.6 µM (inactive) in [3]; 35.5 µM (inactive) in test [4]; more than 46.5 µM in test [5]; 47.3 µM (inactive) in test [6]. The GI50 in test [7] was 25.1 µM (inactive); in [8], > 46.5 µM (inactive); in [9] it was > 100 µM (inactive); in test [10] it was 28.8 µM (inactive); in test [11], 15.5 µM (inactive); in [12] it was > 46.5 µM (inactive). For the same compound, the GI50 in [13] was > 100 µM (inactive); in test [14], 14.6 µM (inactive); in test [15], 39.9 µM (inactive); in [16], 65.5 µM (inactive); in [17], > 46.5 µM (inactive); in [18] it was 30.1 µM (inactive). Also, the GI50 in [19] was 27.7 µM (inactive); in test [20] it was > 46.5 µM (inactive).
For `N#CC1=C(N)N(/N=C/c2ccccc2)C(c2ccccc2)C1(C#N)C#N` (stereo unspecified), the GI50 was 4.61 µM (inactive) in [1]; 16.5 µM (inactive) in test [2]; 20.2 µM (inactive) in test [3]; 2.81 µM (inactive) in [4]; 6.75 µM in test [5]; 2.19 µM (inactive) in test [6]. Further, the GI50 in test [7] was 16.8 µM (inactive); in [8] it was 4 µM (inactive); in test [9] it was 24.1 µM (inactive); in test [10], 2.98 µM (inactive); in [11], 4.14 µM (inactive); in [12], 16.1 µM (inactive). Moreover, the GI50 in test [13] was 2.07 µM (inactive); in test [15], 4.94 µM (inactive); in [16] it was 20.7 µM (inactive); in [17] it was 17.1 µM (inactive); in [18] it was 14.2 µM (inactive); in [19], 14.6 µM (inactive). In addition, in test [20], the GI50 is 13.5 µM (inactive).
Turning to `O=Cc1ccc(-c2ccc(S(=O)(=O)O)cc2)o1`, the GI50 in test [1] was > 100 µM (inactive); in test [2], > 100 µM (inactive); in test [3], > 100 µM (inactive); in test [4] it was > 100 µM (inactive); in [5] it was more than 100 µM; in test [6], > 100 µM (inactive). The GI50 in test [8], in test [9], in [10], in test [11], in test [12] and in test [13] was > 100 µM (inactive) each time. Further, the GI50 in test [14], in [15], in test [16], in test [17], in [18] and in test [19] was > 100 µM (inactive) throughout. In addition, the GI50 in test [20] was > 100 µM (inactive).
For the compound `Cc1ccc(-c2cc(-c3c(C)nn(C)c(=O)c3N)n[nH]2)cc1`, the GI50 in [1] is > 100 µM (inactive); in test [2], > 100 µM (inactive); in [3], 83 µM (inactive); in test [4], > 100 µM (inactive); in test [5], more than 100 µM; in test [6] it was > 100 µM (inactive). Also, the GI50 in test [8], in test [9], in [10], in test [11], in test [12] and in test [13] was > 100 µM (inactive) throughout. Besides, the GI50 is > 100 µM (inactive) in test [14]; 99.1 µM (inactive) in test [15]; > 100 µM (inactive) in [16]; > 100 µM (inactive) in [17]; > 100 µM (inactive) in test [18]; > 100 µM (inactive) in [19]. The GI50 in test [20] is > 100 µM (inactive).
`Cn1c(=O)c2c(nc3n(CCCCl)c(=O)ccn23)n(C)c1=O`: the GI50 in test [1] was > 100 µM (inactive); in test [2] it was > 100 µM (inactive); in test [3], > 100 µM (inactive); in test [4], > 100 µM (inactive); in [5], more than 100 µM; in test [6], > 100 µM (inactive). Besides, the GI50 in [7], in test [8], in test [9], in [10], in test [11] and in [12] was > 100 µM (inactive) throughout. In addition, the GI50 in [14], in test [15], in [16], in [17], in test [18] and in test [19] was > 100 µM (inactive) throughout. Further, in [20], the GI50 is > 100 µM (inactive).
With `O=C1NC2c3c(I)sc(I)c3/C(=N\O)C2O1` (stereo unspecified), the GI50 is 32.7 µM (inactive) in test [1]; 53.7 µM (inactive) in [2]; 10.9 µM (inactive) in test [3]; 25.1 µM (inactive) in test [4]; 24.4 µM in test [5]; 20 µM (inactive) in test [6]. The GI50 was 30.5 µM (inactive) in [7]; 17.9 µM (inactive) in test [8]; 11.5 µM (inactive) in test [9]; 19.9 µM (inactive) in test [10]; 29.4 µM (inactive) in [11]; 33.6 µM (inactive) in test [12]. In addition, the GI50 is 25.1 µM (inactive) in [13]; 31.5 µM (inactive) in [14]; 67.9 µM (inactive) in [15]; 24.3 µM (inactive) in [16]; 45.6 µM (inactive) in test [17]; 30.8 µM (inactive) in [19]. In addition, the GI50 in test [20] was 20.7 µM (inactive).
For the compound `O=C1OC(c2ccccc2)=NC1c1ccccc1` (stereo unspecified), the GI50 in [1] is > 100 µM (inactive); in test [2], > 100 µM (inactive); in [3], > 100 µM (inactive); in test [4] it was > 100 µM (inactive); in test [5], more than 100 µM; in test [6] it was > 100 µM (inactive). Further, the GI50 in [7], in [8], in test [9], in [10], in test [11] and in test [12] was > 100 µM (inactive) each time. The GI50 in test [14], in test [15], in [16], in test [17], in test [18] and in test [19] was > 100 µM (inactive) in each case. Besides, in test [20], the GI50 is > 100 µM (inactive).
Consider `O=C1NC(N2CCOCC2)=N/C1=C\c1ccccc1`, for which the GI50 in test [1] is > 100 µM (inactive); in [2] it was > 100 µM (inactive); in [3], > 100 µM (inactive); in test [4] it was > 100 µM (inactive); in [5], more than 100 µM; in test [6] it was > 100 µM (inactive). Also, the GI50 in test [7], in [8], in test [9], in test [11], in test [12] and in test [13] was > 100 µM (inactive) each time. The GI50 in test [15], in test [16], in test [17], in test [18], in [19] and in test [20] was > 100 µM (inactive) in each case.
